ChEMBL document CHEMBL4346655, “Synthesis and biological activities of artemisinin-piperazine-dithiocarbamate derivatives” (Eur J Med Chem, 2019)

Tests used:
L02 = test: Cytotoxicity against human L02 cells incubated for 72 hrs by MTT assay; format: cell-based; settings: L02, 72 h
SMMC-7721 [1] = test: Cytotoxicity against human SMMC7721 cells incubated for 72 hrs by MTT assay; format: functional, cell-based; settings: SMMC-7721, 72 h
SMMC-7721 [2] = test: Induction of apoptosis in human SMMC7721 cells assessed as necrotic cells at 1 ug/ml incubated for 72 hrs by Annexin V-FITC/PI staining based flow cytometric analysis (reference value: 0.52 to 0.72%); format: functional
SMMC-7721 [3] = test: Induction of apoptosis in human SMMC7721 cells assessed as live cells at 1 ug/ml incubated for 72 hrs by Annexin V-FITC/PI staining based flow cytometric analysis (reference value: 94.81 to 96.55%); format: functional
SMMC-7721 [4] = test: Induction of apoptosis in human SMMC7721 cells assessed as live cells at 10 ug/ml incubated for 72 hrs by Annexin V-FITC/PI staining based flow cytometric analysis (reference value: 94.81 to 96.55%); format: functional
SMMC-7721 [5] = test: Induction of apoptosis in human SMMC7721 cells assessed as live cells at 50 ug/ml incubated for 72 hrs by Annexin V-FITC/PI staining based flow cytometric analysis (reference value: 94.81 to 96.55%); format: functional
SMMC-7721 [6] = test: Induction of apoptosis in human SMMC7721 cells assessed as necrotic cells at 10 ug/ml incubated for 72 hrs by Annexin V-FITC/PI staining based flow cytometric analysis (reference value: 0.52 to 0.72%); format: functional
SMMC-7721 [7] = test: Induction of apoptosis in human SMMC7721 cells assessed as early apoptotic cells at 50 ug/ml incubated for 72 hrs by Annexin V-FITC/PI staining based flow cytometric analysis (reference value: 1.31 to 1.65%); format: functional
CCD-18Co = test: Cytotoxicity against human CCD-18Co cells incubated for 72 hrs by MTT assay; format: cell-based
DU-145 = test: Cytotoxicity against human DU145 cells incubated for 72 hrs by MTT assay; format: functional, cell-based; settings: DU-145, 72 h
MCF7 = test: Cytotoxicity against human MCF7 cells incubated for 72 hrs by MTT assay; format: functional, cell-based; settings: MCF7, 72 h
MCF-10A = test: Cytotoxicity against human MCF10A cells incubated for 72 hrs by MTT assay; format: cell-based
SMMC-7721 [8] = test: Induction of apoptosis in human SMMC7721 cells assessed as late apoptotic cells at 50 ug/ml incubated for 72 hrs by Annexin V-FITC/PI staining based flow cytometric analysis (reference value: 1.63 to 2.82%); format: functional
SMMC-7721 [9] = test: Induction of apoptosis in human SMMC7721 cells assessed as late apoptotic cells at 1 ug/ml incubated for 72 hrs by Annexin V-FITC/PI staining based flow cytometric analysis (reference value: 1.63 to 2.82%); format: functional
RWPE-1 = test: Cytotoxicity against human RWPE1 cells incubated for 72 hrs by MTT assay; format: cell-based; settings: RWPE-1, 72 h
SMMC-7721 [10] = test: Induction of apoptosis in human SMMC7721 cells assessed as late apoptotic cells at 10 ug/ml incubated for 72 hrs by Annexin V-FITC/PI staining based flow cytometric analysis (reference value: 1.63 to 2.82%); format: functional
SMMC-7721 [11] = test: Induction of apoptosis in human SMMC7721 cells assessed as early apoptotic cells at 10 ug/ml incubated for 72 hrs by Annexin V-FITC/PI staining based flow cytometric analysis (reference value: 1.31 to 1.65%); format: functional
SMMC-7721 [12] = test: Induction of apoptosis in human SMMC7721 cells assessed as early apoptotic cells at 1 ug/ml incubated for 72 hrs by Annexin V-FITC/PI staining based flow cytometric analysis (reference value: 1.31 to 1.65%); format: functional
SMMC-7721 [13] = test: Induction of apoptosis in human SMMC7721 cells assessed as necrotic cells at 50 ug/ml incubated for 72 hrs by Annexin V-FITC/PI staining based flow cytometric analysis (reference value: 0.52 to 0.72%); format: functional
HCT-116 = test: Cytotoxicity against human HCT116 cells incubated for 72 hrs by MTT assay; format: functional, cell-based; settings: HCT-116, 72 h

Row | SMILES | IC50 (L02) | IC50 (SMMC-7721 [1]) | other results
1 | C[C@H]1[C@H](N2CCN(C(=S)SCc3ccc4ccccc4c3)CC2)O[C@@H]2O[C@@]3(C)CC[C@H]4[C@H](C)CC[C@@H]1[C@@]24OO3 | 0.16 µM | 0.0243 µM | 
2 | Cc1ccc(CSC(=S)N2CCN([C@@H]3O[C@@H]4O[C@@]5(C)CC[C@H]6[C@H](C)CC[C@@H]([C@H]3C)[C@@]46OO5)CC2)cc1 | 0.23 µM | 0.0102 µM | 
3 | C[C@H]1[C@H](N2CCN(C(=S)SCc3ccc([N+](=O)[O-])cc3)CC2)O[C@@H]2O[C@@]3(C)CC[C@H]4[C@H](C)CC[C@@H]1[C@@]24OO3 | 0.17 µM | 0.0167 µM | 
4 | Nc1ccn([C@@H]2O[C@H](CO)[C@@H](O)[C@@H]2O)c(=O)n1 [CYTARABINE] | 0.21 µM | 0.0271 µM | 
5 | C[C@H]1[C@H](N2CCN(C(=S)SCc3ccccc3)CC2)O[C@@H]2O[C@@]3(C)CC[C@H]4[C@H](C)CC[C@@H]1[C@@]24OO3 | 0.3 µM | 0.026 µM | 
6 | Cc1ccccc1CSC(=S)N1CCN([C@@H]2O[C@@H]3O[C@@]4(C)CC[C@H]5[C@H](C)CC[C@@H]([C@H]2C)[C@@]35OO4)CC1 | 0.25 µM | 0.0114 µM | 
7 | C[C@H]1[C@H](N2CCN(C(=S)SCc3ccccc3Cl)CC2)O[C@@H]2O[C@@]3(C)CC[C@H]4[C@H](C)CC[C@@H]1[C@@]24OO3 | 0.2 µM | 0.0237 µM | 
8 | C[C@H]1[C@H](N2CCN(C(=S)SCc3ccc(C#N)cc3)CC2)O[C@@H]2O[C@@]3(C)CC[C@H]4[C@H](C)CC[C@@H]1[C@@]24OO3 | 0.18 µM | 0.0025 µM | Activity (SMMC-7721 [2]): 2.2 - 2.98%; Activity (SMMC-7721 [3]): 61.22 - 63.68%; Activity (SMMC-7721 [4]): 50.41 - 53.94%; Activity (SMMC-7721 [5]): 28.05 - 29.95%; Activity (SMMC-7721 [6]): 3.07 - 4.04%; Activity (SMMC-7721 [7]): 45.82 - 46.69%; IC50 (CCD-18Co): 0.0406 µM; IC50 (DU-145): 0.0063 µM; IC50 (MCF7): 0.0135 µM; IC50 (MCF-10A): 0.0224 µM; Activity (SMMC-7721 [8]): 21.86 - 24.63%; Activity (SMMC-7721 [9]): 6.72 - 9.36%; IC50 (RWPE-1): 0.0105 µM; Activity (SMMC-7721 [10]): 12.36 - 14.62%; Activity (SMMC-7721 [11]): 30.54 - 31.3%; Activity (SMMC-7721 [12]): 26.43 - 27.05%; Activity (SMMC-7721 [13]): 1.5 - 1.77%; IC50 (HCT-116): 0.0402 µM
9 | C[C@H]1[C@H](N2CCN(C(=S)SCC(=O)OCc3ccccc3)CC2)O[C@@H]2O[C@@]3(C)CC[C@H]4[C@H](C)CC[C@@H]1[C@@]24OO3 | 0.15 µM | 0.0332 µM | 
10 | CC[C@]1(O)C[C@H]2CN(CCc3c([nH]c4ccccc34)[C@@](C(=O)OC)(c3cc4c(cc3OC)N(C=O)[C@H]3[C@@](O)(C(=O)OC)[C@H](OC(C)=O)[C@]5(CC)C=CCN6CC[C@]43[C@@H]65)C2)C1 [VINCRISTINE] | 0.06 µM | 0.0103 µM | 
11 | CCCCCCCCCCCCCCCCCCSC(=S)N1CCN([C@@H]2O[C@@H]3O[C@@]4(C)CC[C@H]5[C@H](C)CC[C@@H]([C@H]2C)[C@@]35OO4)CC1 | 0.13 µM | 0.016 µM | 
12 | CCCCCSC(=S)N1CCN([C@@H]2O[C@@H]3O[C@@]4(C)CC[C@H]5[C@H](C)CC[C@@H]([C@H]2C)[C@@]35OO4)CC1 | 0.18 µM | 0.0371 µM | 
13 | C[C@H]1[C@H](N2CCN(C(=S)SCc3ccc(Br)cc3)CC2)O[C@@H]2O[C@@]3(C)CC[C@H]4[C@H](C)CC[C@@H]1[C@@]24OO3 | 0.15 µM | 0.007 µM | 
14 | C[C@H]1[C@@H](O)O[C@@H]2O[C@@]3(C)CC[C@H]4[C@H](C)CC[C@@H]1[C@@]24OO3 [ARTENIMOL] | 0.36 µM | > 0.1 µM | 
15 | C[C@H]1[C@H](N2CCN(C(=S)SCc3ccc(Cl)cc3)CC2)O[C@@H]2O[C@@]3(C)CC[C@H]4[C@H](C)CC[C@@H]1[C@@]24OO3 | 0.17 µM | 0.0284 µM | 
